Format in all cases: functional, cell-based
In assay [1] the test system is MCF7. Kind of assay: Antiproliferative activity against human MCF7 cell line by MTT assay. In general terms: Formazan colour is commonly taken as a measure of viable cells.
The subject of assay [2] is NCI-H460. In words: Antiproliferative activity against human NCI-H460 cell line by MTT assay.
The test system of assay [3] is SF-268. Kind of assay: cells. The following applies: Homo sapiens.
Description: Antiproliferative activity against human SF-268 cell line by MTT assay
In assay [4] the test system is 13762. Kind of assay: Antiproliferative activity against rat 13762 cell line.

This is an account of results in ChEMBL document CHEMBL1149346, “Activity of nitrogen-containing and non-nitrogen-containing bisphosphonates on tumor cell lines” (J Med Chem, 2006).

Structures are written as SMILES.

Regarding `CN(C)c1cc[n+](CC(O)(P(=O)([O-])O)P(=O)(O)O)cc1` (stereo not given), the IC50 in assay [1], in assay [2] and in assay [3] was more than 10000 µM each time.

Take `N#Cc1cccc(CC(P(=O)(O)O)P(=O)(O)O)c1`: the IC50 in assay [1], in assay [2] and in assay [3] was more than 1000 µM throughout.

Turning to `O=P([O-])(O)C(C[n+]1cccc(S(=O)(=O)N2CCCC2)c1)P(=O)(O)O` (stereo not given), the IC50 in assay [1], in assay [2] and in assay [3] was more than 10000 µM each time.

In the case of `O=P([O-])(O)C(O)(C[n+]1ccc(-c2ccncc2)cc1)P(=O)(O)O` (stereo not given), the IC50 in assay [1], in assay [2] and in assay [3] was more than 10000 µM in each case.

As for `O=P([O-])(O)C(C[n+]1ccc(-c2cccc(-c3ccccc3)c2)cc1)P(=O)(O)O` (stereo not given), the IC50 in assay [1], in assay [2] and in assay [3] was more than 10000 µM in each case.

In the case of `O=P([O-])(O)C(C[n+]1ccc2ccccc2c1)P(=O)(O)O` (stereo not given), the IC50 in assay [1], in assay [2] and in assay [3] was more than 10000 µM throughout.

Turning to `O=P([O-])(O)C(C[n+]1ccc(C(F)(F)F)cc1)P(=O)(O)O` (stereo not given), the IC50 in assay [1], in assay [2] and in assay [3] was more than 10000 µM in each case.

As for `O=P([O-])(O)C(C[n+]1ccc(-c2ccc(-c3ccccc3)cc2)cc1)P(=O)(O)O` (stereo not given), the IC50 in assay [1], in assay [2] and in assay [3] was more than 10000 µM each time.

Take `NCCC(O)(P(=O)(O)O)P(=O)(O)O` [PAMIDRONIC ACID]: the IC50 (usually the concentration that gives 50% inhibition) in assay [1] worked out at 141 µM; in assay [2], 71.8 µM; in assay [3] it was 408 µM; in assay [4] it was 33.6 µM.

In the case of `O=P(O)(O)C(O)(Cc1cccnc1)P(=O)(O)O` [RISEDRONIC ACID], the IC50 in assay [1] is 35.7 µM; in assay [2], 43.7 µM; in assay [3], 23.3 µM; in assay [4], more than 40 µM.

In the case of `O=P(O)(O)C(O)(Cn1ccnc1)P(=O)(O)O` [ZOLEDRONIC ACID], the concentration for half-maximal inhibition (IC50) came to 27.7 µM in assay [1], 11.7 µM in assay [2] and 14.3 µM in assay [3].
